This is an account of results in patent US20260091026A1, “METHODS OF TREATING INFLAMMATORY DISEASES” (INTERLINE THERAPEUTICS, INC., priority 2023, published 2026).

Molecules are shown by their SMILES. Where only a bound is given, the exact number is not on record here.

Experiment [1] concerns THP1-Dual cells, NF-κB pathway (SEAP). Put plainly: THP-1 Dual cell SEAP assay (L18-MDP stimulated). In kind it is cell-based. To be noted: Homo sapiens, 10 ng/mL L18-MDP, 20-24 h, SEAP readout, read-out: IFNγ THP1 IC50. The essentials: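 About 25,000 THP1-Dual cells per well were preincubated 30 min with serially diluted compound, then stimulated overnight (20-24 h, 37 °C) with 10 ng/mL L18-MDP (final). NF-κB-driven SEAP in supernatant was read with QUANTI-Blue at OD 620-655 nm after 2 h; % inhibition versus DMSO/L18-MDP wells was fitted by non-linear regression to give IC50.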

In experiment [2] the target is T1, RIPK2 (KD)/XIAP (BIR2) (Homo sapiens, UniProt O43353).
T1 construct: made in house; host or cells: baculovirus-infected Sf9 cells
Description: RIPK2-XIAP binding competition PPI assay (TR-FRET). The settings on record: for Emax: 50 nM of GSK583 = -100% activity, read-out: PPI Amax; for IC50: GST-RIPK2 / His-XIAP (BIR2)-avi, 120 min at 23° C. The gist of the method:
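TR-FRET competition between GST-RIPK2 (aa 1-310, 1 nM) and His-XIAP BIR2-avi (aa 152-231, 25 nM), both Sf9-expressed, detected with anti-His-XL665 and anti-GST-Tb in Tris pH 7.5 buffer with MgCl2, DTT and vanadate. Incubation was 120 min at 23 °C; the 665/520 nm ratio was normalized to no inhibitor (0%) and 50 nM GSK583 (−100%).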
For orientation: Time-resolved FRET reads energy transfer from a long-lived donor to a nearby acceptor.

T1 sequence (O43353 1-310): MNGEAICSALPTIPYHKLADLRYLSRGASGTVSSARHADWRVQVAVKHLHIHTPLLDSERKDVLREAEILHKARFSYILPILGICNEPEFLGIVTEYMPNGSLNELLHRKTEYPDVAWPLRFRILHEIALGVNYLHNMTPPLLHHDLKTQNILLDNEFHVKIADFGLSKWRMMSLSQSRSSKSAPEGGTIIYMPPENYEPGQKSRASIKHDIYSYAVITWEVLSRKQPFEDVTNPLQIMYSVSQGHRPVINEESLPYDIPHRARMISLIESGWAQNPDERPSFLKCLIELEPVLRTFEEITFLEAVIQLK

A word on the IC50: it is the midpoint of a concentration-inhibition curve. For the compound `COc1cc2ncc(-c3cc(C(=O)N[C@@H]4C[C@H]4c4ccccc4)n(C)n3)n2cc1S(=O)(=O)C(C)(C)C` (single isomer, unassigned) [Example 33, trans-(1R,2S) or (1S,2R) 3-(6-(tert-butylsulfonyl)-7-methoxyimidazo[1,2-a]pyridin-3-yl)-1-methyl-N-(2-phenylcyclopropyl)-1H-pyrazole-5-carboxamide], the IC50 in experiment [1] is greater than 2500 nM; in experiment [2], 100 to 1000 nM. In addition, in experiment [2], the Emax is no less than 80%.

Regarding `COc1cc2ncc(-c3cc(NC(=O)O[C@H](C)c4ccccc4)n(C)n3)n2cc1S(=O)(=O)C(C)(C)C` [Example 151, (R)-1-phenylethyl (3-(6-(tert-butylsulfonyl)-7-methoxyimidazo[1,2-a]pyridin-3-yl)-1-methyl-1H-pyrazol-5-yl)carbamate], the IC50 in experiment [1] is less than 100 nM; in experiment [2], less than 10 nM. Besides, in experiment [2], the Emax is no less than 80%.

Take `CCn1nc(-c2cnc3cc(OCCO)c(S(=O)(=O)C(C)(C)C)cn23)cc1C(=O)N[C@@H](C)c1ccn(C)n1` [Example 123, (S)-3-(6-(tert-butylsulfonyl)-7-(2-hydroxyethoxy)imidazo[1,2-a]pyridin-3-yl)-1-ethyl-N-(1-(1-methyl-1H-pyrazol-3-yl)ethyl)-1H-pyrazole-5-carboxamide]: the IC50 in experiment [1] was greater than 2500 nM. Besides, in experiment [2], the Emax was no less than 80% and the IC50 fell in the range of 100 to 1000 nM.

On to `COc1cc2ncc(-c3cc(C(=O)NCc4ncc(F)cc4F)n(C)n3)n2cc1S(=O)(=O)C(C)(C)C` [Example 54, 3-(6-(tert-butylsulfonyl)-7-methoxyimidazo[1,2-a]pyridin-3-yl)-N-((3,5-difluoropyridin-2-yl)methyl)-1-methyl-1H-pyrazole-5-carboxamide], for which the IC50 in experiment [1] lay in the range of 500 to 2500 nM. In experiment [2], the Emax was no less than 80% and the IC50 was in the range of 100 to 1000 nM.

As to `COc1cc2ncc(-c3cc(C(=O)NCc4n[nH]c5ccccc45)n(C)n3)n2cc1S(=O)(=O)C(C)(C)C` [Example 14, N-((1H-indazol-3-yl)methyl)-3-(6-(tert-butylsulfonyl)-7-methoxyimidazo[1,2-a]pyridin-3-yl)-1-methyl-1H-pyrazole-5-carboxamide], the IC50 in experiment [1] was in the range of 100 to 500 nM. In experiment [2], the Emax is no less than 80% and the IC50 is less than 10 nM.

In the case of `CCn1nc(-c2cnc3cc(OCCO)c(S(=O)(=O)C(C)(C)C)cn23)cc1C(=O)NCc1ccsn1` [Example 128, 3-(6-(tert-butylsulfonyl)-7-(2-hydroxyethoxy)imidazo[1,2-a]pyridin-3-yl)-1-ethyl-N-(isothiazol-3-ylmethyl)-1H-pyrazole-5-carboxamide], the 50% inhibitory concentration (IC50) in experiment [1] was less than 100 nM. In experiment [2], the Emax is no less than 80% and the IC50 was less than 10 nM.

Consider `COc1cn2ncc(-c3cc(C(=O)N[C@H](C)c4ccccn4)n(C)n3)c2cc1S(=O)(=O)C(C)(C)C` [Example 113, (R)-3-(5-(tert-butylsulfonyl)-6-methoxypyrazolo[1,5-a]pyridin-3-yl)-1-methyl-N-(1-(pyridin-2-yl)ethyl)-1H-pyrazole-5-carboxamide], for which, in experiment [1], the IC50 fell in the range of 500 to 2500 nM. Further, in experiment [2], the Emax was no less than 80% and the IC50 was in the range of 100 to 1000 nM.

Consider `COc1cc2ncc(-c3cc(C(=O)N[C@H](C)c4ncccc4F)n(CCO)n3)n2cc1S(=O)(=O)C(C)(C)C` [Example 143, (R)-3-(6-(tert-butylsulfonyl)-7-methoxyimidazo[1,2-a]pyridin-3-yl)-N-(1-(3-fluoropyridin-2-yl)ethyl)-1-(2-hydroxyethyl)-1H-pyrazole-5-carboxamide], for which the IC50 in experiment [1] lay in the range of 100 to 500 nM. Besides, in experiment [2], the Emax is no less than 80% and the IC50 fell in the range of 10 to 100 nM.

`COc1cc2ncc(-c3cc(C(=O)N[C@@H](C)c4ccccc4)n(C)n3)n2cc1S(=O)(=O)C(C)(C)C` [Example 8, (S)-3-(6-(tert-butylsulfonyl)-7-methoxyimidazo[1,2-a]pyridin-3-yl)-1-methyl-N-(1-phenylethyl)-1H-pyrazole-5-carboxamide]: the IC50 in experiment [1] was greater than 2500 nM. Moreover, in experiment [2], the Emax was no less than 80% and the IC50 is greater than 1000 nM.

On to `CC[C@@H](NC(=O)c1cc(-c2cnc3cc(OC)c(S(=O)(=O)C(C)(C)C)cn23)nn1C)c1ccccn1` [Example 61, (R)-3-(6-(tert-butylsulfonyl)-7-methoxyimidazo[1,2-a]pyridin-3-yl)-1-methyl-N-(1-(pyridin-2-yl)propyl)-1H-pyrazole-5-carboxamide], for which, in experiment [1], the IC50 is greater than 2500 nM. For the same compound, in experiment [2], the Emax is no less than 80% and the IC50 lay within 100 to 1000 nM.

`COc1cc2ncc(-c3cc(C(=O)NCc4ncccn4)n(C)n3)n2cc1S(=O)(=O)C(C)(C)C` [Example 66, 3-(6-(tert-butylsulfonyl)-7-methoxyimidazo[1,2-a]pyridin-3-yl)-1-methyl-N-(pyrimidin-2-ylmethyl)-1H-pyrazole-5-carboxamide]: the IC50 in experiment [1] was 500 to 2500 nM; in experiment [2] it was 100 to 1000 nM. Also, in experiment [2], the Emax is no less than 80%.

On to `CCn1nc(-c2cnc3cc(OCCO)c(S(=O)(=O)C(C)(C)C)cn23)cc1C(=O)N[C@H](C)c1ncccc1F` [Example 118, (R)-3-(6-(tert-butylsulfonyl)-7-(2-hydroxyethoxy)imidazo[1,2-a]pyridin-3-yl)-1-ethyl-N-(1-(3-fluoropyridin-2-yl)ethyl)-1H-pyrazole-5-carboxamide], for which the IC50 in experiment [1] was less than 100 nM; in experiment [2] it was less than 10 nM. Besides, in experiment [2], the Emax is no less than 80%.

As to `C[C@@H](NC(=O)c1cc(-c2cnn3cc(OCCO)c(S(=O)(=O)C(C)(C)C)cc23)nn1C)c1ccccn1` [Example 115, (R)-3-(5-(tert-butylsulfonyl)-6-(2-hydroxyethoxy)pyrazolo[1,5-a]pyridin-3-yl)-1-methyl-N-(1-(pyridin-2-yl)ethyl)-1H-pyrazole-5-carboxamide], the IC50 in experiment [1] lay in the range of 500 to 2500 nM. In addition, in experiment [2], the Emax is no less than 80% and the IC50 was 10 to 100 nM.

`COc1cc2ncc(-c3cc(C(=O)NCc4ncccc4OC)n(C)n3)n2cc1S(=O)(=O)C(C)(C)C` [Example 72, 3-(6-(tert-butylsulfonyl)-7-methoxyimidazo[1,2-a]pyridin-3-yl)-N-((3-methoxypyridin-2-yl)methyl)-1-methyl-1H-pyrazole-5-carboxamide]: the IC50 in experiment [1] was greater than 2500 nM; in experiment [2], 100 to 1000 nM. The Emax in experiment [2] is no less than 80%.

As for `COc1cc2ncc(-c3cc(C(=O)NCc4cscn4)n(C)n3)n2cc1S(=O)(=O)C(C)(C)C` [Example 85, 3-(6-(tert-butylsulfonyl)-7-methoxyimidazo[1,2-a]pyridin-3-yl)-1-methyl-N-(thiazol-4-ylmethyl)-1H-pyrazole-5-carboxamide], in experiment [1], the IC50 was 500 to 2500 nM. For the same compound, in experiment [2], the Emax is no less than 80% and the IC50 lay within 10 to 100 nM.

Turning to `CCn1nc(-c2cnc3cc(OC)c(S(=O)(=O)C(C)(C)C)cn23)cc1C(=O)N[C@H](C)c1ccn(C)n1` [Example 125, (R)-3-(6-(tert-butylsulfonyl)-7-methoxyimidazo[1,2-a]pyridin-3-yl)-1-ethyl-N-(1-(1-methyl-1H-pyrazol-3-yl)ethyl)-1H-pyrazole-5-carboxamide], the half-maximal inhibitory concentration (IC50) in experiment [1] was less than 100 nM. Further, in experiment [2], the Emax was no less than 80% and the IC50 fell in the range of 10 to 100 nM.

On to `CCn1nc(-c2cnc3cc(OCCO)c(S(=O)(=O)C(C)(C)C)cn23)cc1C(=O)NCc1ncc(C)s1` [Example 126, 3-(6-(tert-butylsulfonyl)-7-(2-hydroxyethoxy)imidazo[1,2-a]pyridin-3-yl)-1-ethyl-N-((5-methylthiazol-2-yl)methyl)-1H-pyrazole-5-carboxamide], for which the IC50 in experiment [1] is less than 100 nM. In experiment [2], the Emax is no less than 80% and the IC50 is less than 10 nM.

Take `COc1cc2ncc(-c3cc(C(=O)N[C@H](C)c4ccccc4F)n(C)n3)n2cc1S(=O)(=O)C(C)(C)C` [Example 10, (R)-3-(6-(tert-butylsulfonyl)-7-methoxyimidazo[1,2-a]pyridin-3-yl)-N-(1-(2-fluorophenyl)ethyl)-1-methyl-1H-pyrazole-5-carboxamide]: the IC50 in experiment [1] lay within 100 to 500 nM. Further, in experiment [2], the Emax is no less than 80% and the IC50 lay within 10 to 100 nM.

Regarding `COc1cc2ncc(-c3cc(C(=O)NCc4nccs4)n(C)n3)n2cc1S(=O)(=O)C(C)(C)C` [Example 84, 3-(6-(tert-butylsulfonyl)-7-methoxyimidazo[1,2-a]pyridin-3-yl)-1-methyl-N-(thiazol-2-ylmethyl)-1H-pyrazole-5-carboxamide], in experiment [1], the IC50 lay within 500 to 2500 nM. Moreover, in experiment [2], the Emax was no less than 80% and the IC50 fell in the range of 10 to 100 nM.

Turning to `COc1cc2ncc(-c3cc(C(=O)NCC4CCC4)n(C)n3)n2cc1S(=O)(=O)C(C)(C)C` [Example 39, 3-(6-(tert-butylsulfonyl)-7-methoxyimidazo[1,2-a]pyridin-3-yl)-N-(cyclobutylmethyl)-1-methyl-1H-pyrazole-5-carboxamide], the 50% inhibitory concentration (IC50) in experiment [1] is greater than 2500 nM. In addition, in experiment [2], the Emax is no less than 80% and the IC50 was in the range of 100 to 1000 nM.

For `COc1cc2ncc(-c3cc(C(=O)NC(C)C)n(C)n3)n2cc1S(=O)(=O)C(C)(C)C` [Example 37, 3-(6-(tert-butylsulfonyl)-7-methoxyimidazo[1,2-a]pyridin-3-yl)-N-isopropyl-1-methyl-1H-pyrazole-5-carboxamide], in experiment [1], the IC50 was greater than 2500 nM. Besides, in experiment [2], the Emax fell in the range of 30 to 55% and the IC50 is greater than 1000 nM.
